Patent US5684140A, “Dyes for ink jet printing” (Ilford A.G., priority 1995, dated 1997)

test: Water solubility of the dyes (excess dye heated at 50 °C in water, cooled to 20 °C, filtered, determined spectroscopically); assay type: physicochemical; settings: after heating at 50 °C for one hour
Method: The solubilities of the dyes according to the invention were determined as follows:
An excess of dye was heated at 50° C. in water with stirring for one hour. The mixture was then cooled down to 20 ° C. and filtered, and the dye content of the clear solution was determined spectroscopically.

Question: With COc1cc(N=Nc2cc(S(=O)(=O)O)c3cccc(S(=O)(=O)O)c3c2)c(C)cc1Nc1nc(O)nc(NCCS(=O)(=O)O)n1 [Compound 100] as the molecule, how does the solubility read?
Answer: Its solubility is 31 g per 100 ml.

Question: With CCN(c1nc(Cl)nc(Nc2cc(NC(C)=O)c(N=Nc3cc(S(=O)(=O)O)c4cccc(S(=O)(=O)O)c4c3)cc2OC)n1)c1cc(S(=O)(=O)O)ccc1C [dye 5, reference compound] as the molecule, how does the solubility read?
Answer: Its solubility is 17 g per 100 ml.

Question: Which solubility does the source give for COc1cc(N=Nc2cc(S(=O)(=O)O)c3cccc(S(=O)(=O)O)c3c2)c(C)cc1Nc1nc(NCCS(=O)(=O)O)nc(SCCO)n1 [Compound 101] here?
Answer: Its solubility is 40 g per 100 ml.

Question: For CCN(c1nc(Cl)nc(Nc2ccc(N=Nc3cc4c(S(=O)(=O)O)cc(S(=O)(=O)O)cc4cc3S(=O)(=O)O)c(NC(N)=O)c2)n1)c1cc(S(=O)(=O)O)ccc1C [dye 1, reference compound], which solubility is on record?
Answer: The solubility was 11 g per 100 ml.

Question: For COc1cc(N=Nc2cc(S(=O)(=O)O)c3cccc(S(=O)(=O)O)c3c2)c(C)cc1Nc1nc(NCCS(=O)(=O)O)nc(SCC(=O)O)n1 [Compound 102], which solubility is on record?
Answer: The solubility was 54 g per 100 ml.
